± gives the expanded uncertainty stated by the source.
Experiments:
[1] = 293.15 K, 101.33 kPa, Liquid
[2] = refractive index (Na D-line) (dimensionless); details: 293.15 K; 101.33 kPa; Liquid; Standard Abbe refractometry

Structure (SMILES) | mass density [1] [kg/m3] | refractive index [2] | mass density ([1]; Vibrating tube method) [kg/m3]
CC(C)=O [acetone] | 790 ± 1 | 1.359 ± 0.0007 | 
c1ccccc1 [benzene] |  | 1.5011 ± 0.0007 | 879 ± 1
CCO [ethanol] |  | 1.366 ± 0.0007 | 790 ± 1
CO [methanol] |  | 1.3301 ± 0.0007 | 792 ± 1
